Results reported in patent publication US6991778B2, “Use of dendrimers polyl-functionalized with nitroxide groups as contrast enhancing agents in MRI imaging of joints and injectable compositions comprising them” (Nitrosci, priority 1999, dated 2006).
Like-named read-outs stand apart in the source and are kept apart here.

What was measured:
[1] = cited from earlier work
[2] = in vivo, iv; cited from earlier work
[3] = Relaxivities (k1) of nitroxides and dendrimers; format: physicochemical; parameters: unit not given here; conditions: room temperature, 1.5 T
[4] = rabbit joints; Bacic, et al. 1997; cited from earlier work
[5] = rabbit; cited from earlier work
[6] = In vitro rate of nitroxide reduction by superoxide in the presence of a thiol (EPR); format: in vitro ADME; conditions: room temperature; nitroxide 50 micromolar, cysteine 200 micromolar, superoxide flux 10 micromolar/min, pH 7.4
Text: In vitro rate of nitroxide reduction (Table 1) was undertaken using superoxide in the presence of a thiol, as an in vitro model for activated phagocytic cells. G. M. Rosen, B. E. Britigan, M. S. Cohen, S. P. Ellington and M. J. Barber, Biochim. Biophys. Acta, 969:236-241, 1988; G. M. Rosen and E. J. Rauckman. Biochem. Pharmacol. 26: 675-678, 1977; S. Pou, P. L. Davis, G. L. Wolf and G. M. Rosen, Free Rad. Res. 23: 353-364, 1995; and E. Finkelstein, G. M. Rosen and E. J. Rauckman, Biochim. Biophys. Acta, 802:90-98, 1984. For these determinations, nitroxides [S. Pou, et al, E. Finkelstein, et al., supra, and H. Kuthan, V. Ullrich and R. Estabrook, Biochem. J. 203: 551-558, 1982, (50 micromolar) were added to cysteine (200 micromolar) in the presence of a continued flux of superoxide (10 micromolar/min), generated by the action of xanthine oxidase on xanthine (400 micromolar) in Chelexed sodium phosphate buffer (50 mM, pH 7.4) The rate of superoxide production was estimated by following the superoxide dismutase (30 U/mL) inhibitable reduction of ferricytochrome c at […] using a molar absorbance of 21 mM^−1 cm^−1. H. Kuthan et al. supra. Rates of nitroxide reduction were monitored by EPR spectroscopy at ambient temperature by observing the change of the low-field (the broadened EPR spectrum of each dendrimer-linked nitroxide prevented the use of other peaks to measure rates of reduction) as a function of time.

[7] = MRI of shoulder joints after intra-articular injection; format: in vivo, human; conditions: 1 mL of 100 μM solution into both shoulder joints, 1.5 Tesla
Description: Into both shoulder joints of a person (45-55 kg), with post-trauma chronic soreness in one of the shoulder joint is injected 1 mL of a stock 100 μM sterile solution in 0.9% normal saline of a dendrimer of Formula (I) containing 32 terminal PROXYL-3-carbamido nitroxide groups using a (gauge 25) needle. Then position the patent in a MR imager (1.5 Tesla MR system, SIGNA; General Electric Medical Systems, Milwaukee, Wis.) and obtain a scan of both joints in the conventional manner.

[8] = MRI of rabbit knee joint after intra-articular injection; format: in vivo; conditions: 1 mL of stock solution into rabbit knee joint
Description: Rabbits (2.8-3.5 kg) to be used for MRI experiments are sedated with intramuscular Ketamine and Xylazine. Anesthesia is maintained with i. v. sodium pentobarbital as required. Under fluoroscopic guidance, a needle (gauge 25) is placed into the knee joint of a thus-anesthetized rabbit and 1 mL of a stock solution of a nitroxyl functionalized dendrimer of Formula (I) containing 32 nitroxyl functionalizing groups. The rabbit's injected joint is then positioned in a MR imager.

Compound	Relaxivity (k1) [3]	Reduction Rate [6]	further results
O=C([O-])CN(CCN(CC(=O)[O-])CC(=O)O)CCN(CC(=O)[O-])CC(=O)O.[Gd+3] [Gd(DTPA), gadolinium (Gd)-DTPA]	4.94	–	relaxivity ([1]; as reported by Keana, et al.): 4.95 mM⁻¹ s⁻¹; relaxivity ([1]; room temperature, 1.5 T): ca. 5; equilibration throughout the cartilage [2]: ca. 5 hr
CC1(C)CC(C[N+](C)(C)C)C(C)(C)N1[O].[I-] (stereo not drawn) [3-trimethylaminomethyl-2,2,5,5-tetramethyl-1-pyrrolidinyloxyl iodide]	–	–	affinity toward proteoglycans [4]: high affinity; in vivo stability [5]: remarkable
DAB-dendrimer-(NH-3-CO-PROXYL)4 [[5]]	0.82	7.93 µM/min	–
DAB-dendrimer-(NH-3-CO-PROXYL)16 [[8]]	3.19	0.00 µM/min	–
TREN-dendrimer-(NH-3-CO-PROXYL)3 [[6]]	0.57	7.54 µM/min	–
DAB-dendrimer-(NH-3-CO-PROXYL)8 [[7]]	1.69	0.00 µM/min	–
DAB-dendrimer-(NH-3-CO-PROXYL)32 [[9]]	5.73	0.00 µM/min	status of the articular cartilage in the MR image [7]: readily identifiable; articular cartilage in the MR image [8]: readily identifiable
CC1(C)CC(C(=O)O)C(C)(C)N1[O] (stereo not drawn) [[1], 3-carboxy-2,2,5,5-tetramethyl-1-pyrrolidinyloxyl, reference compound]	0.19	0.52 µM/min	–
DAB-dendrimer-(NH-3-CH2-PROXYL)4 [[15]]	0.82	–	–
